Source: ChEMBL document CHEMBL1125900, “Biologically active taxol analogues with deleted A-ring side chain substituents and variable C-2' configurations” (J Med Chem, 1991)
Values after ≈ are worked out from the molar mass of the structure shown.

Legend:
Homo sapiens = organism: Homo sapiens; assay: Effect on microtubule protein assembly was determined in vitro; assay type: functional
[1] = Solubility in H2O was measured; assay type: physicochemical; conditions: water
CHO = assay: Concentration that inhibits cell division by 50% after 72 hr for CHO cells was determined; assay type: functional; conditions: Cricetulus griseus, read-out: ED50 (the source's name)
J774.2 = assay: Concentration that inhibits cell division by 50% after 72 hr for J774.2 cells was determined; assay type: functional; conditions: Mus musculus, J774.2, 72 h; read-out: ED50 (the source's name)

solubility [1] [µM]	EC50 (J774.2) [µM]	SMILES	Assembly (Homo sapiens) [%]	EC50 (CHO) [µM]
820 (≈ 540 µg/mL)	27	CC(=O)O[C@H]1C(=O)[C@@]2(C)[C@H]([C@H](OC(=O)c3ccccc3)[C@]3(O)C[C@H](OC(=O)[C@@H](C)O)C(C)=C1C3(C)C)[C@]1(OC(C)=O)CO[C@@H]1C[C@@H]2O	31	> 45
160 (≈ 118 µg/mL)	3.4	CC(=O)O[C@H]1C(=O)[C@@]2(C)[C@H]([C@H](OC(=O)c3ccccc3)[C@]3(O)C[C@H](OC(=O)[C@@H](O)Cc4ccccc4)C(C)=C1C3(C)C)[C@]1(OC(C)=O)CO[C@@H]1C[C@@H]2O	69	5.3
175 (≈ 129 µg/mL)	3.5	CC(=O)O[C@H]1C(=O)[C@@]2(C)[C@H]([C@H](OC(=O)c3ccccc3)[C@]3(O)C[C@H](OC(=O)[C@H](O)Cc4ccccc4)C(C)=C1C3(C)C)[C@]1(OC(C)=O)CO[C@@H]1C[C@@H]2O	68	5.5
1000 (≈ 659 µg/mL)	29	CC(=O)O[C@H]1C(=O)[C@@]2(C)[C@H]([C@H](OC(=O)c3ccccc3)[C@]3(O)C[C@H](OC(=O)[C@H](C)O)C(C)=C1C3(C)C)[C@]1(OC(C)=O)CO[C@@H]1C[C@@H]2O	38	> 45
565 (≈ 439 µg/mL)		CC(=O)O[C@H]1C(=O)[C@@]2(C)[C@H]([C@H](OC(=O)c3ccccc3)[C@]3(O)C[C@H](OC(=O)[C@@H](O)CNC(=O)c4ccccc4)C(C)=C1C3(C)C)[C@]1(OC(C)=O)CO[C@@H]1C[C@@H]2O		
615 (≈ 478 µg/mL)	20	CC(=O)O[C@H]1C(=O)[C@@]2(C)[C@H]([C@H](OC(=O)c3ccccc3)[C@]3(O)C[C@H](OC(=O)[C@H](O)CNC(=O)c4ccccc4)C(C)=C1C3(C)C)[C@]1(OC(C)=O)CO[C@@H]1C[C@@H]2O	60	32
		Nc1nc2c(ncn2[C@@H]2O[C@H](COP(=O)(O)OP(=O)(O)OP(=O)(O)O)[C@@H](O)[C@H]2O)c(=O)[nH]1 [GUANOSINE TRIPHOSPHATE]	70	
	0.09	CC(=O)O[C@H]1C(=O)[C@@]2(C)[C@H]([C@H](OC(=O)c3ccccc3)[C@]3(O)C[C@H](OC(=O)[C@H](O)[C@@H](NC(=O)c4ccccc4)c4ccccc4)C(C)=C1C3(C)C)[C@]1(OC(C)=O)CO[C@@H]1C[C@@H]2O [PACLITAXEL]	100	0.35
